What was measured:
Jurkat cells [1] = assay: Caspase 3 activity (apoptosis) in Jurkat cells after storage under xenon pressure; assay type: cell-based; conditions: 4 Atm excessive pressure of gas comprising xenon, 24 hrs of storage, with and without doxorubicin
U-937 cells = assay: JC-1 staining of U-937 cells with flow cytometry (state of mitochondria, apoptosis) after storage under xenon; assay type: cell-based, human
Method: In order to obtain the data presented in these Examples, Leukemic monocyte lymphoma cells U-937 were grown in RPMI-1640 medium supplied with 15% fetal bovine serum and 10 mkg/ml gentamicin in the atmosphere of 5% CO2 at 37° C. Petri dishes containing the cell culture in exponential phase of growth were placed into a holding rack and transferred into containers having an inner volume of approximately 1.5 L which were designed for storage in hyperbaric conditions. The mixture of gases Xe—CO2 (95% and 5% respectively) was used for buildup of pressure of 0.5 to 4.0 Atm above ambient pressure over a period of 5-10 minutes, with particular parameters presented in connection with the Figures presented herein. The temperature was held from 22° C. to 37° C. in this embodiment of the invention Gases were mixed in a separate tank (or in the container/tube) based on calculation of their partial pressure. The container with Petri dishes was kept at this temperature and pressure for 2 hrs. Then the container was transferred to a refrigerator with decreased temperature (from 0.1° C. to +5° C.), while maintaining the pressure. The container was held at under these conditions for approximately 4 weeks. After that, the pressure was released and the container holding the cells was kept for 7 days in a household at a temperature of +4° C. to +10° C. and atmospheric pressure.
Accordingly, these cells respond to a large number of both extracellular and intracellular proapoptotic signals and have been used as model cells for analyzing apoptosis (Pimentel-Muiños F X, Seed B. Regulated commitment of TNF receptor signaling: a molecular switch for death or activation. Immunity. 1999 December; 11 (6):783-93; Karas M, Zaks T Z, Liu J L, LeRoith D. T cell receptor-induced activation and apoptosis in cycling human T cells occur throughout the cell cycle. Mol Biol Cell. 1999 December; 10 (12):4441-50; Valavanis C, Hu Y, Yang Y, Osborne B A, Chouaib S, Greene L, Ashwell J D, Schwartz L M. Model cell lines for the study of apoptosis in vitro. Methods Cell Biol. 2001; 66:417-36).

Jurkat cells [2] = assay: Live Jurkat cell count (trypan blue) after transfer from storage to standard cultivation conditions; assay type: cell-based; conditions: 24 hrs under standard conditions (37° C., 5% CO2) after storage, Xe+37 doxo and Xe+4 doxo vs control, FIG. 3

[Xe] [xenon]
development of spontaneous and induced (Doxo) apoptosis, caspase 3 activity (Jurkat cells [1]; FIG. 4): prevented development of both spontaneous (series no Doxo in the diagram) and induced (series Doxo in the diagram) apoptosis | development of spontaneous and induced (Doxo) apoptosis, caspase 3 activity (Jurkat cells [1]; FIG. 4, listed as Xenon): prevented development of both spontaneous (no Doxo and non-treated) and induced (Doxo) apoptosis | development of spontaneous and induced (Doxo) apoptosis (U-937 cells; 4 Atm over ambient pressure Xe, with and without doxorubicin, FIG. 5): prevented development of both spontaneous (no Doxo and non-treated) and induced (Doxo) apoptosis | damage of mitochondria compared to control (U-937 cells; JC-1, after 7 days of storage, control = no gas, 37° C.): significantly decreased damage of mitochondria | percentage of doxorubicin-treated cells with undamaged mitochondria (U-937 cells; JC-1, vs cells stored without xenon, after 24 hrs and 7 days of storage, FIG. 5): significantly higher | action on cellular mitochondria (U-937 cells; xenon both in combination with cooling and without cooling): exerted protective action on cellular mitochondria | cell growth (number of live cells) after exposure to doxorubicin (Jurkat cells [2]): improved cell growth after exposure to doxorubicin

Reference: patent publication US10098340B2, “Method for preserving cells and cell cultures” (Rich Technologies Holding Company, LLC, priority 2011, dated 2018)
